Data reported in PMC10318527, “Utilization of dietary mixed-linkage β-glucans by the Firmicute Blautia producta” (The Journal of Biological Chemistry, 2023).

Key:
[1] = test system: β-glucan utilization locus of B. producta; assay: RT-qPCR of β-glucan utilization locus genes; assay type: cell-based, Blautia producta ATCC 27340
Method: Changes in the transcript expression levels of the β-glucan utilization locus of B. producta were performed by RT-qPCR. B. producta was initially cultured in 5 ml of GAM for 24 h and cells were spun down by centrifugation and washed three times with sterile PBS. […] Immediately, 300 μl saturated phenol with citrate buffer (pH 4.3, […] Sigma Aldrich) was added, and the mixed solution was incubated at 60 °C for 5 min with mild shaking. After that, it was centrifuged at 15,000 g for 5 min, and the upper aqueous phase was transferred into a new Eppendorf tube. It was mixed with three volumes of chilled ethanol and incubated for 30 min at -80 °C. The precipitate was then collected by centrifugation at the same speed, the pellet was washed with 70% ethanol twice, and the final white residue was dissolved in 100 to 500 μl of distilled water. The concentration of total RNA was calculated by a spectrophotometer at 260 nm. If a residual amount of DNA was observed, DNase-1 treatment was also given, following the manufacturer's instructions (AMPD1, Sigma Aldrich). About 2 μg total RNA was immediately used for reverse transcription using AccuScript High Fidelity cDNA Synthesis Kit (Agilent). RT-qPCR was performed in a 96-well plate on a CFX96 qPCR system (BioRad) using SYBR Green Master (BioRad), using the primers mentioned in Table S2. The qPCR reactions were executed in 10 μl, consisting of 5 μl of SYBR green mix, 30 ng of cDNA, and one pmol of each primer of a gene of the locus or 16S rRNA (Table S2). […] The 2^ˆ-ΔΔCt method calculated the expression of each gene and normalized data to 16S rRNA transcript level. Finally, the expression level of each gene was calculated as fold change compared with cultures of a minimal medium containing 1% glucose. Three technical replicates were used for bar generation of each gene expression; each bar represents average values and error bars indicate the standard errors of three technical replicates.

[2] = test system: BPGH16 mutant E379A; assay: Kinetics of BPGH16 mutant E379A (DNS assay); assay type: biochemical, Blautia producta ATCC 27340
Method: The residues R331, L358, E379, D381, E384, W362, and H398 of BpGH16MLG were mutated to Ala by the Q5Site-Directed Mutagenesis Kit (New England Biolabs, UK, catalogue no. E0554S). Wild-type plasmid BpGH16-pET28a(+) was used as a template, and mutagenic forward and reverse primers were developed using NEBaseChanger with subtle modifications (Table S4). A 25 μl PCR cocktail was prepared for mutating each residue. The final concentration of Q5 Hot Start High-Fidelity 2X Master Mix was 1X, each primer was at 0.5 μM, the amount of used template was 20 ng, and the rest of the volume was made up of nuclease-free water. PCR was executed using the following conditions-initial denaturation was performed at 98 °C for 1 min, for each cycle-denaturation, annealing, and extension (72 °C) were set for 10 s, 20 s, and 7 min, respectively. […] The mutant protein was then expressed as per the protocol mentioned earlier, and kinetics were performed with barley β-glucan.
Reactions were performed in 100 μl volume mixture using recombinant enzyme (final concentration at 0.1 mg/ml) in 50 mM sodium phosphate buffer (pH 5.7) at 37 °C for 1 h of incubation. […] Enzymatic assays were determined with 3,5- dinitrosalicylic acid (DNS) assay ([85]). […] Consequently, recorded the developed color spectrophotometrically at 575 nm ([85]). […]

[3] = 1% barley β-glucan compared to glucose

## Barley β-glucan
[1]; [3]
  upregulation of bp1313 expression: 5.2 fold
  upregulation of bp1314 expression: 3.9 fold
[1]; barley MLG versus glucose
  upregulation of bp1316 expression: 4.7 fold
  upregulation of bp1317 expression: 5 fold
  upregulation of bp1318 expression: 4.5 fold
[1]; barley β-glucan compared to glucose
  fold change in expression of transcriptional regulator bp1315: 0.76 fold
[2]
  kcat: 0 s⁻¹
